According to paper doi:10.1101/2025.07.01.662609v1, “BtuJ1, a novel surface-exposed B12-binding protein in Bacteroidetes, functions as an extracellular vitamin reservoir that enhances fitness” (biorxiv, 2025):

Target: T1, BtuJ1 (BT1491) (Bacteroides thetaiotaomicron, UniProt Q8A7N3)
T1 construct: gene BT_1491; mature part without lipid anchor residue (signal peptide cleaved between 21 and 22); His-tagged, pET28 NcoI/XhoI, E. coli BL21(DE3); modelled from Met29
T1 sequence (Q8A7N3 23-256): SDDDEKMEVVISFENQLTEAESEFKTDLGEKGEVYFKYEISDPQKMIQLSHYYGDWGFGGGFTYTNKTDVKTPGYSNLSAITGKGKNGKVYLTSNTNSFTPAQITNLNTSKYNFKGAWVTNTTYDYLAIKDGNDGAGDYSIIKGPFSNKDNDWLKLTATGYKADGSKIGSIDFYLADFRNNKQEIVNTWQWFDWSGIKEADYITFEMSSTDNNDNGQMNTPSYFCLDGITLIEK
Test: binding shown in supplementary figure, method not stated in main text
Details: AdoCbl added at 1:2 protein:corrinoid, then SEC in 10 mM Hepes, 100 mM NaCl, pH 7.5

C/C1=C2/[N-][C@H]([C@H](CC(N)=O)[C@@]2(C)CCC(=O)NC[C@@H](C)OP(=O)([O-])O[C@H]2C(O)[C@@H](n3cnc4cc(C)c(C)cc43)O[C@@H]2CO)[C@]2(C)N=C(/C(C)=C3N=C(/C=C4N=C1[C@@H](CCC(N)=O)C\4(C)C)[C@@H](CCC(N)=O)[C@]\3(C)CC(N)=O)[C@@H](CCC(N)=O)[C@]2(C)CC(N)=O.[CH2-][C@H]1O[C@@H](n2cnc3c(N)ncnc32)[C@H](O)[C@@H]1O.[Co+3] (stereo partly shown) [AdoCbl, adenosylcobalamin] was tested, and the “binding shown in supplementary figure, method not stated in main text” value was “BtuJ1 also binds adenosylcobalamin, which has a bulkier upper ligand compared to other cobalamins”.
